Data published in US6544727B1, “Methods and devices for the removal of psoralens from blood products” (Cerus Corporation, priority 1995, dated 2003).
“Also recorded” adds a separate entry of the source. Where two headings read alike, the source gives them in different places.

Columns and labels:
R17 bacteriophage [1] = test: R17 bacteriophage inactivation at constant concentration, varying doses of UV light; format: cell-based; conditions: 1.0-3.0 J/cm^2, FIGS. 11-17
Procedure: Compounds of the present invention were also tested at a constant concentration for varying doses of UV light. Three sets of 1.5 mL tubes were prepared containing 0.6mL aliquots of R17 in DMEM (prepared as described above). The compound tested was added at the desired concentration and the samples were vortexed. The samples were then irradiated at intervals of 1.0 J/cm^2, until 3.0 J/cm^2 was reached. Between each 1.0 J/cm^2 interval, 100 μL was removed from each sample and placed in the first corresponding dilution tube, then five sequential dilutions were performed for each compound tested, at all 3 irradiation doses, as described above in this example.
Then 50 μL of Hfr 3000 bacteria was added to each tube, 3 mL of top agar was added and the tube contents were vortexed The contents of each tube was poured into its own LB plate and the plates were incubated overnight at 37° C. Plaques were counted by visual inspection the following morning.

HIV-1 = conditions: 1 minute irradiation
Procedure: As in the R17 assay, small aliquots of the compounds listed in TABLES 10 and 11, below, at the concentrations listed in the table, were added to stock HIV-1 to a total of 0.5 mL. The stock HIV (10^5−10^7 plaque forming units/mL) was in DMEM15% FBS. […] Controls included HIV-1 stock only, HIV-1 plus UVA only, and HIV-1 plus the highest concentration of each psoralen tested, with no UVA. Post irradiation, all samples were store frozen at −70° C. until assayed for infectivity by a microtiter plaque assay. Aliquots for measurement of residual HIV infectivity in the samples treated with a compound of the present invention were withdrawn and cultured.
Residual HIV infectivity was assayed using an MT-2 infectivity assay. […] The assay medium was 85% DMEM (with a high glucose concentration) containing 100 μg of streptomycin, 100 U of penicillin, 50 μg of gentamicin, and 1 μg of amphotericin B per mL, 15% FBS and 2 μg of Polybrene (Sigma Chemical Co., St. Louis, Mo.) per mL. Test and control samples from the inactivation procedure were diluted in 50% assay medium and 50% normal human pooled plasma The samples were serially diluted directly in 96-well plates (Corning Glass Works, Corning, N.Y.). The plates were mixed on an oscillatory shaker for 30 seconds and incubated at 37° C. in a 5% CO2 atmosphere for 1 to 18 hours. […] After an additional 1 hour of incubation at 37° C. in 5% CO2, 0.075 mL of assay medium containing 1.6% SeaPlaque agarose (FMC Bioproducts, Rockland, Me.) and prewarmed to 38.5° C. was added to each well. The plates were kept at 37° C. for a few minutes until several plates had accumulated and then centrifuged in plate carriers at 600×g for 20 minutes in a centrifuge precooled to 10° C. In the centrifuge, cell monolayers formed prior to gelling of the agarose layer. The plates were incubated for 5 days at 37° C. in 5% CO2 and stained by the addition of 0.05 mL of 50 μg/mL propidium iodide (Sigma Chemical Co.) in phosphate-buffered saline (pH 7.4) to each well. After 24 to 48 hours, the red fluorescence-stained microplaques were visualized by placing the plates on an 8,000 μW/cm^2304 nm UV light box (Fotodyne, Inc., New Berlin, Wis.). The plaques were counted at a magnification of x20 to x25 through a stereomicroscope.

[2] = tested on: Salmonella tester strain TA100
Procedure: (§1) In this example the compounds of the present invention are tested for their dark mutagenicity using an Ames assay. The procedures used for the Salmonella mutagenicity test as described in detail by Maron and Ames were followed exactly. Maron, D. M. and B. N. Ames, Mutation Research 113: 173 ( 1983). A brief description for each procedure is given here. The tester strains TA97a, TA98, TA100, TA102, TA1537 and TA1538 were obtained from Dr. Ames. TA97a, TA98, TA1537 and TA1538 are frameshift tester strains. TA100 and TA102 are base-substitution tester strains. Upon receipt each strain was cultured under a variety of conditions to confirm the genotypes specific to the strains.
(§2) The first tests done with the strains were to determine the range of spontaneous reversion for each of the strains. With each mutagenicity experiment the spontaneous reversion of the tester strains to histidine independence was measured and expressed as the number of spontaneous revertants per plate. This served as the background controls.
(§3) For all experiments, the pre-incubation procedure was used. In this procedure one vial of each tester strain was thawed and 20 μL of this culture was added to 6 mL of Oxoid Nutrient Broth #2. This solution was allowed to shake for 10 hours at 37° C. In the pre-incubation procedure, 0.1 mL of this overnight culture was added to each of the required number of sterile test tubes. To half of the tubes 0.5 mL of a 10% S-9 solution containing Aroclor 1254 induced rat liver extract (Molecular Toxicology Inc., Annapolis, Md.), and MgCl2, KCl, glucose-6-phosphate, NADP, and sodium phosphate buffer (Sigma, St. Louis, Mo.) were added. To the other half of the tubes 0.5 mL of 0.2M sodium phospate buffer, pH 7.4, was used in place of the S-9 mixture (the—S9samples). Finally 0.1 mL of the test solution containing either 0, 0.1, 0.5, 1, 5, 10, 50, 100, 250, or 500 μg/mL of the test compound was added. The 0.7 mL mixture was vortexed and then pre-incubated while shaking for 20 minutes at 37° C. After shaking, 2 mL of molten top agar supplemented with histidine and biotin were added to the 0.7 mL mixture and immediately poured onto a minimal glucose agar plate (volume of base agar was 20 mL). The top agar was allowed 30 minutes to solidify and then the plates were inverted and incubated for 44 hours at 37° C. After incubation the number of revertant colonies on each plate were counted. […] (“n” represents the number of replicates performed for each data point.)

[3] = tested on: Salmonella tester strain TA1538
Procedure: as §1, §2, §3

[4] = tested on: Salmonella typhimurium tester strains; test: Ames Salmonella dark mutagenicity test, overall assessment; format: cell-based; conditions: two-fold or greater increase in revertants above background and dose dependence
Procedure: A brief description for each procedure is given here. […] TA97a, TA98, TA1537 and TA1538 are frameshift tester strains. TA100 and TA102 are base-substitution tester strains.
This served as the background controls.
For all experiments, the pre-incubation procedure was used.

R17 bacteriophage [5] = test: R17 bacteriophage inactivation assay, varying compound concentration; format: cell-based
Procedure: An r-17 bacteriophage assay was used in this example to predict pathogen inactivation efficiency and to determine nucleic acid binding of the photoreactive binding compounds of the present invention. In the r-17 assay, the bacteriophage was placed in a solution with each compound tested and was then irradiated. The ability of the phage to subsequently infect bacteria and inhibit their growth was measured. The bacteriophage was selected for its relatively accessible nucleic acid such that the culture growth inhibition would accurately reflect nucleic acid damage by the test compounds. The bacteriophage assay for nucleic acid binding to test compounds offers a safe and inexpensive procedure to identify compounds likely to display efficient pathogen inactivation.
The R17 was grown up in Hfr 3000 bacteria, approximate titer 5×10^11. (R17 and Hfr 3000 were obtained from American Tissue Culture Collection (ATCC), Washington, D.C.) The R17 phage stock was added to a solution of 15% fetal bovine serum in Dulbecco's Modified Eagles Medium (DMEM) to a final phage concentration of 10^9/mL. An aliquot (0.5 mL) was transferred to a 1.5 mL snap-top polyethylene tube. An aliquot (0.004-0.040 mL) of the test compound stock solution prepared in water, ethanol or dimethylsulfoxide at 0.80-8.0 mM was added to the tube. Compounds were tested at concentrations between 4 μM and 320 μM. […] The tubes were placed in a light device as described in EXAMPLE 1 and irradiated for between 1 and 10 minutes. Sterile 13 mL dilution tubes were prepared; each test compound required one tube with 0.4 mL of Luria broth (LB) and five tubes containing 0.5 mL of LB broth. To make the dilutions, a 0.100 mL aliquot of the irradiated solution of phage and test compound was added to the first dilution tube of 0.4 mL of media then 0.020 mL of this solution was added to the second tube of 0.5 mL medium (1:25). The second solution was then diluted serially (1:25) into the remaining tubes. To each diluted sample was added 0.050 mL of Hfr 3000 bacteria cultured overnight and 3 mL of molten LB top agar and the mixed materials were poured onto LB broth plates. After the top agar hardened, the plates were incubated at 37° C. overnight. The plaque forming units were then counted the following morning and the titer of the phage remaining after phototreatment was calculated based on the dilution factors.
The following controls were run: the “phage only” in which phage was not treated with test compound and not irradiated (listed as “starting titer” in the tables below); the “UV only” in which the phage was irradiated in the absence of test compound; and the “dark” control in which the phage/test compound solution was not irradiated before it was diluted and plated.

[6] = 16 μM, starting titer approximately 5.4 logs (Table 11)
[7] = 32 μM, starting titer approximately 5.4 logs (Table 11)
[8] = 64 μM, starting titer approximately 5.4 logs (Table 11)
[9] = 64 μM, starting titer approximately 5 logs (Table 10)
[10] = Experiment 1, 32 μM compound, 1′ uva
[11] = Experiment 1, 32 μM compound, 10′ uva
[12] = Experiment 1, compound only (32 μM), no uva
[13] = Experiment 2, 3.2 μM compound, 1′ uva
[14] = Experiment 2, 3.2 μM compound, 10′ uva
[15] = Experiment 2, compound only (3.2 μM), no uva
[16] = Experiment 3, 4 μM compound, 1′ uva
[17] = Experiment 3, 8 μM compound, 1′ uva
[18] = Experiment 3, 16 μM compound, 1′ uva
[19] = Experiment 3, compound only (16 μM), no uva

## Cc1oc2c(C)c3oc(=O)cc(C)c3cc2c1CNCCCNCCCN [Compound 12, 4′-(9-amino-2,6-diaza)nonyl-4,5′,8-trimethylpsoralen]
R17 bacteriophage [1]
  R17 inactivation efficiency compared with AMT (in words): more efficient at inactivating R17 than was AMT
HIV-1; [6]
  HIV Log Kill: 0.4 log
HIV-1; [7]
  HIV Log Kill: 0.8 log
HIV-1; [8]
  HIV Log Kill: 1.3 log

## Cc1oc2c(C)c3oc(=O)cc(C)c3cc2c1CNCCCCCN [Compound 10, 4′-(7-amino-2-aza)heptyl-4,5′,8-trimethylpsoralen]
R17 bacteriophage [1]
  R17 inactivation efficiency compared with AMT (in words): more efficient at inactivating R17 than was AMT
HIV-1; [6]
  HIV Log Kill: 2.0 log
HIV-1; [7]
  HIV Log Kill: >3.5 log
HIV-1; [8]
  HIV Log Kill: >3.5 log

## Cc1oc2c(C)c3oc(=O)cc(C)c3cc2c1COCCCN [Compound 4, 4′-(5-amino-2-oxa)pentyl-4,5′,8-trimethylpsoralen]
[2]; TA100 + S9, 5 μg/plate
  revertant colonies per plate: −10
[2]; TA100 + S9, 10 μg/plate
  revertant colonies per plate: −3
[2]; TA100 − S9, 5 μg/plate
  revertant colonies per plate: −41
[2]; TA100 − S9, 10 μg/plate
  revertant colonies per plate: 3
[3]; TA1538 + S9, 5 μg/plate
  revertant colonies per plate: 7
[3]; TA1538 + S9, 10 μg/plate
  revertant colonies per plate: −2
[3]; TA1538 − S9, 5 μg/plate
  revertant colonies per plate: −2
[3]; TA1538 − S9, 10 μg/plate
  revertant colonies per plate: −2
[4]
  mutagenic response in the Ames assay (in words): no mutagenicity
R17 bacteriophage [5]; 16 μM, starting titer approx. 7.1 logs, 1 minute irradiation = 1.2 J/cm^2 (Table 8)
  R17 Log Kill: 2.3 log
R17 bacteriophage [5]; 32 μM, starting titer approx. 7.1 logs, 1 minute irradiation = 1.2 J/cm^2 (Table 8)
  R17 Log Kill: 4.3 log
R17 bacteriophage [5]; 64 μM, starting titer approx. 7.1 logs, 1 minute irradiation = 1.2 J/cm^2 (Table 8)
  R17 Log Kill: >6.1 log
HIV-1; 32 μM, starting titer approximately 5 logs (Table 10)
  HIV Log Kill: 2.2 log
HIV-1; [9]
  HIV Log Kill: >3.6 log

## Cc1oc2c(C)c3oc(=O)cc(C)c3cc2c1CNCCN [Compound 1, 4′-(4-amino-2-aza)butyl-4,5′,8-trimethylpsoralen]
[2]; TA100 + S9, 5 μg/plate
  revertant colonies per plate: −24
[2]; TA100 + S9, 10 μg/plate
  revertant colonies per plate: −22
[2]; TA100 − S9, 5 μg/plate
  revertant colonies per plate: 292
[2]; TA100 − S9, 10 μg/plate
  revertant colonies per plate: 337
[3]; TA1538 + S9, 5 μg/plate
  revertant colonies per plate: 21
[3]; TA1538 + S9, 10 μg/plate
  revertant colonies per plate: 22
[3]; TA1538 − S9, 5 μg/plate
  revertant colonies per plate: 10
[3]; TA1538 − S9, 10 μg/plate
  revertant colonies per plate: 12
[4]
  mutagenic response in the Ames assay (in words): weak frameshift mutagen in TA1538 at 5 μg/plate in the presence of S9; also recorded: displayed mutation in the TA100 strain, but only in the absence of S9
R17 bacteriophage [5]; 8 μM, starting titer approx. 7.2 logs, 1 minute irradiation (Table 7)
  R17 Log Kill: 1.7 log
R17 bacteriophage [5]; 16 μM, starting titer approx. 7.2 logs, 1 minute irradiation (Table 7)
  R17 Log Kill: 2.8 log
R17 bacteriophage [5]; 32 μM, starting titer approx. 7.2 logs, 1 minute irradiation (Table 7)
  R17 Log Kill: 5.3 log
R17 bacteriophage [5]; 32 μM, starting titer approx. 7.5 logs, 1 minute irradiation
  R17 log kill (32 μM): >6.6 log
R17 bacteriophage [5]; [10]
  Log Titer: <1
  Logs Killed: >6.7 logs
R17 bacteriophage [5]; [11]
  Log Titer: <1
  Logs Killed: >6.7 logs
R17 bacteriophage [5]; [12]
  Log Titer: 7.6
  Logs Killed: 0.1 logs
R17 bacteriophage [5]; [13]
  Log Titer: 6.9
  Logs Killed: 0.9 logs
R17 bacteriophage [5]; [14]
  Log Titer: 6.1
  Logs Killed: 1.7 logs
R17 bacteriophage [5]; [15]
  Log Titer: 7.7
  Logs Killed: 0.1 logs
R17 bacteriophage [5]; [16]
  Log Titer: 6.3
  Logs Killed: 1.0 logs
R17 bacteriophage [5]; [17]
  Log Titer: 5.6
  Logs Killed: 1.7 logs
R17 bacteriophage [5]; [18]
  Log Titer: 3.9
  Logs Killed: 3.4 logs
R17 bacteriophage [5]; [19]
  Log Titer: 7.3
  Logs Killed: 0 logs
R17 bacteriophage [5]; varying concentration, Tables 6-9, FIGS. 6-10
  R17 inactivation efficiency compared with AMT or 8-MOP (in words): much higher R17 inactivation efficiency than does 8-MOP
HIV-1; [9]
  HIV Log Kill: 2.1 log

## Cc1oc2c(C)c3oc(=O)cc(C)c3cc2c1CNCCCNCCCCNCCCN [Compound 15, 4′-(14-amino-2,6,11-triaza)tetradecyl-4,5′,8-trimethylpsoralen]
R17 bacteriophage [1]
  R17 inactivation efficiency compared with AMT (in words): more efficient at inactivating R17 than was AMT
